Consider eight compounds from ChEMBL document CHEMBL1157866, “Evaluation of anti-pigmentary effect of synthetic sulfonylamino chalcone” (Eur J Med Chem, 2010).

Each structure is given as a SMILES string. The source made the active and inactive calls. The rule behind the calls is not given here.

In series [1] the target is T1, Tyrosinase (Agaricus bisporus, UniProt O42713).
T1 sequence (O42713 whole entry): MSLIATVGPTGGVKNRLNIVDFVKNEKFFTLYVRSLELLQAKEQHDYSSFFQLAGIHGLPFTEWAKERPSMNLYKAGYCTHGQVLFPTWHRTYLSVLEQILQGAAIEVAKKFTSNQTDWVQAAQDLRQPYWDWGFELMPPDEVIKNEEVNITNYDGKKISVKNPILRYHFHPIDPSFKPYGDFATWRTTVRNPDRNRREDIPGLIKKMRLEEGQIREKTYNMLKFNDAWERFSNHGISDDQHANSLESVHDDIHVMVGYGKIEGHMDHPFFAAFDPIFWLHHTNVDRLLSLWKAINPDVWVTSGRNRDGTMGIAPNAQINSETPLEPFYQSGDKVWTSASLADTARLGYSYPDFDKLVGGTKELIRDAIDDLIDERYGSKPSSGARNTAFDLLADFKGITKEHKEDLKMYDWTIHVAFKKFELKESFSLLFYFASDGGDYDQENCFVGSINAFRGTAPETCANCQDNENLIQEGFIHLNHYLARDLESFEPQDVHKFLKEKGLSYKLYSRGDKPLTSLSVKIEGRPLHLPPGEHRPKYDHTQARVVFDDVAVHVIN
Briefly: Competitive inhibition of monophenolase activity of mushroom tyrosinase using as L-tyrosine substrate by Lineweaver-Burke plot analysis.

Series [2] concerns B16. The series can be described thus: cells. The note with it: Mus musculus, B16, 48 h.
Series [3] concerns the target T2, Tyrosinase (Agaricus bisporus) (UniProt O42713).
T2 sequence (whole entry): T1 sequence (O42713 whole entry)
The series can be described thus: (§1) Inhibition of monophenolase activity of mushroom tyrosinase using as L-tyrosine substrate by spectrophotometric analysis.

Series [4] addresses T1, Tyrosinase. The series is described as §1.
The test system of series [5] is B16. The series can be described thus: Inhibition of alpha-MSH-induced melanin production in mouse B16 cells assessed as reduction pigmentation at 20 uM after 48 hrs. Type of series: functional, cell-based.
The test system of series [6] is B16. Briefly: Reduction of alpha-MSH-induced tyrosinase related protein 1 expression in mouse B16 cells after 2 days by Western blot analysis. The series is classed as functional, cell-based. (In western blotting, separated proteins are transferred to a membrane and probed.)
The nature of series [7]: Cytotoxicity against mouse B16 cells at 10 uM after 72 hrs by MTT assay. The series is classed as cell-based. The settings on record: read-out: Survival. In general terms: Tetrazolium dyes change colour on reduction, which living cells bring about.
Series [8] concerns B16. Briefly: Reduction of alpha-MSH-induced microphthalmia-associated transcription factor expression in mouse B16 cells after 2 days by Western blot analysis. The series is classed as functional, cell-based.
Series [9] deals with B16. Briefly: Cytotoxicity against mouse B16 cells up to 30 uM after 48 hrs by MTT assay. Type of series: cell-based. The note with it: b16, 48 h.
Series [10] in a line: Cytotoxicity against mouse B16 cells at 30 uM after 72 hrs by MTT assay. The series is classed as cell-based. The settings on record: read-out: Survival.
Series [11] has as its system B16. Briefly: Reduction of alpha-MSH-induced tyrosinase related protein 2 expression in mouse B16 cells after 2 days by Western blot analysis. Type of series: functional, cell-based.
The subject of series [12] is B16. Briefly: Reduction of alpha-MSH-induced tyrosinase expression in mouse B16 cells after 2 days by Western blot analysis. Type of series: functional, cell-based.
Series [13] has as its system B16. Briefly: Inhibition of alpha-MSH-induced melanin production in mouse B16 cells after 48 hrs.
The nature of series [14]: Cytotoxicity against mouse B16 cells at 20 uM after 72 hrs by MTT assay. Type of series: cell-based. The note with it: read-out: Survival.
Series [15] concerns Cavia porcellus. Briefly: Toxicity in UV-induced hyperpigmentation brown guinea pig model at 0.3% applied topically bid for 4 weeks. The series is classed as organism-based. The settings on record: in vivo, topical_or_ocular, 672 h.
The subject of series [16] is B16. Briefly: Inhibition of melanin production in mouse B16 cells after 48 hrs. Type of series: functional, cell-based.
In series [17] the test system is Cavia porcellus. Briefly: Reduction of pigmentation in UV-induced hyperpigmentation brown guinea pig model at 0.3% applied topically bid for 4 weeks. Type of series: functional, organism-based.

The Ki is the equilibrium dissociation constant of an inhibitor or competing ligand from its target. A high value points to a looser hold on the target. As usually defined, the IC50 is the concentration that inhibits the measured activity by half. Lower therefore signals inhibition by little substance.

Regarding `O=C(/C=C/c1ccc(O)cc1)c1ccc(NS(=O)(=O)c2ccc(F)cc2)cc1`, affinity on Tyrosinase [1] was put at a Ki of 14.9 µM. In addition, the IC50 is 19.8 µM with B16 [2] and 29.1 µM against Tyrosinase [4]. Also, in [3], the Activity entry is “Dose-dependent effect”.

Compound `O=C(/C=C/c1ccc(O)cc1)c1ccc(O)cc1` [4,4'-DIHYDROXYCHALCONE] came in with a Ki at Tyrosinase [1] of 2.9 µM. The outcome in the series with B16 [5] was Active. The IC50 with B16 [2] turned out to be 48.7 µM; against Tyrosinase [4], 4.8 µM.

Consider `O=C(/C=C/c1ccc(O)cc1)c1ccc(NS(=O)(=O)c2ccccc2)cc1`, for which the Ki at Tyrosinase [1] is 13.3 µM. In addition, the concentration for half-maximal inhibition (IC50) with B16 [2] was determined as 24.2 µM; at Tyrosinase [4] it was 22.5 µM. In series [3], the Activity entry is “Dose-dependent effect”.

On Tyrosinase [1], `Nc1ccc(C(=O)/C=C/c2ccc(O)cc2)cc1` showed an inhibition constant Ki of 3.9 µM. Also, the result with B16 [5] was Active. Also, the IC50 stood at 28.1 µM in the series on B16 [2] and 8.3 µM at Tyrosinase [4].

For `O=C(/C=C/c1ccc(O)cc1)c1ccc(NS(=O)(=O)c2ccc([N+](=O)[O-])cc2)cc1`, the affinity at Tyrosinase [1] corresponds to a Ki of 11.4 µM. For the same compound, the Activity result in [3] is “Dose-dependent effect”. At Tyrosinase [4], the concentration for half-maximal inhibition (IC50) came to 15.2 µM.

On to `Cc1ccc(S(=O)(=O)Nc2ccc(C(=O)/C=C/c3ccc(O)cc3)cc2)cc1`, for which the result in the series on B16 [6], with B16 [8], in the series with B16 [11], with B16 [12], in the series on B16 [5] and in the series with B16 [16] was Active. In the series with Cavia porcellus [17], the result was Active. In addition, the viability at 72 h, 10 µM in series [7] is 92%. For the same compound, the Activity result was “Non-toxic” in the series on B16 [9], “Dose-dependent effect” in the series with B16 [13], “Non-toxic” in the series on Cavia porcellus [15] and “Dose-dependent effect” in series [3]. In addition, in series [10], the viability at 72 h, 30 µM was 78%. This compound yielded an inhibition constant Ki on Tyrosinase [1] of 12.6 µM. In addition, the IC50 with B16 [2] came to 10.4 µM; against Tyrosinase [4], 23.3 µM. The viability at 72 h, 20 µM in series [14] came out at 84%.

`O=C(/C=C/c1ccc(O)cc1)c1ccc(NS(=O)(=O)c2ccc(O)cc2)cc1` showed an inhibition constant Ki at Tyrosinase [1] of 25.2 µM. In addition, the results for the IC50 in the series with B16 [2] and at Tyrosinase [4] were 32.1 µM and 58.8 µM, respectively. The Activity result in series [3] was “Dose-dependent effect”.

`Nc1ccc(S(=O)(=O)Nc2ccc(C(=O)/C=C/c3ccc(O)cc3)cc2)cc1`: the Ki at Tyrosinase [1] came out at 16.7 µM. Further, the half-maximal inhibitory concentration (IC50) was determined as 21.2 µM in the series on B16 [2] and 30.7 µM against Tyrosinase [4]. Further, the Activity entry in series [3] is “Dose-dependent effect”.
